The record followed here is ChEMBL document CHEMBL1201862, “PubChem BioAssay data set” (2004).

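Five concentrations, 48 hours, 96-well plates. At the GI50, growth is halved.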 Activity calls are given as the source filed them. No stated cut-off is given here; in the data, active = GI50 up to about 1.1 µM and inactive = higher.

Test systems include HCT-15; CAKI-1; MDA-N; NCI-H23; KM-20L2; NCI/ADR-RES; 786-0; K562; OVCAR-5; SN12C; SR; M14; ACHN; T47D; LOX IMVI; U-251; OVCAR-3; CCRF-CEM; SK-OV-3; NCI-H522.
Holding throughout (test): inhibition of tumour cell growth, NCI panel, 48 h

As to `N[C@H](C(=O)O)[C@@H]1CC(Cl)=NO1` [ACIVICIN], the GI50 is 0.738 µM in the test on HCT-15; 2.52 µM (inactive) in the test with CAKI-1; 4.06 µM (inactive) in the test on MDA-N; 4.07 µM (inactive) in the test on NCI-H23; 1.36 µM (inactive) in the test with KM-20L2; 4.44 µM (inactive) in the test with NCI/ADR-RES. Moreover, the GI50 is 13.8 µM (inactive) with 786-0; 2.46 µM (inactive) in the test with K562; 7.71 µM (inactive) in the test on OVCAR-5; 3.5 µM (inactive) in the test on SN12C; 0.74 µM (active) in the test on SR; 2.9 µM (inactive) with M14. The GI50 with ACHN was 1.47 µM (inactive); in the test with T47D, 7.73 µM (inactive); with LOX IMVI it was 1.46 µM (inactive); with U-251 it was 2.21 µM (inactive); in the test with OVCAR-3, 2.17 µM (inactive); with CCRF-CEM, 1.19 µM (inactive). In addition, the values for the GI50 in the test on SK-OV-3 and in the test on NCI-H522 were 12.6 µM (inactive) and 4.43 µM (inactive), respectively.
As to `COc1cc(/C=C/C(=O)Oc2ccc(NC(C)=O)cc2)ccc1C(=O)O/C=C/c1ccccc1`, the GI50 was more than 100 µM in the test with HCT-15; > 100 µM (inactive) in the test with NCI-H23; > 100 µM (inactive) with KM-20L2; > 100 µM (inactive) with NCI/ADR-RES; > 31.6 µM (inactive) in the test with K562; > 100 µM (inactive) in the test with OVCAR-5. Moreover, the GI50 in the test on SN12C, in the test on LOX IMVI, in the test on U-251, in the test on OVCAR-3, in the test with CCRF-CEM and with SK-OV-3 was > 100 µM (inactive) each time. Besides, in the test with NCI-H522, the GI50 was > 100 µM (inactive).
In the case of `CNC=O`, the GI50 in the test with HCT-15 was more than 10000 µM; in the test with CAKI-1 it was > 10000 µM (inactive); in the test with MDA-N it was > 10000 µM (inactive); in the test on NCI-H23, > 10000 µM (inactive); with KM-20L2, > 10000 µM (inactive); in the test on NCI/ADR-RES it was > 10000 µM (inactive). The GI50 with 786-0 was > 10000 µM (inactive); with K562 it was > 10000 µM (inactive); in the test on OVCAR-5, > 10000 µM (inactive); in the test with SN12C, > 7740 µM (inactive); in the test with SR, > 10000 µM (inactive); in the test with M14, > 10000 µM (inactive). Besides, the GI50 was > 10000 µM (inactive) with ACHN; > 10000 µM (inactive) in the test with T47D; > 9180 µM (inactive) in the test with LOX IMVI; 9930 µM (inactive) with U-251; > 9310 µM (inactive) in the test with OVCAR-3; > 10000 µM (inactive) in the test with CCRF-CEM. In addition, the GI50 is > 3980 µM (inactive) with SK-OV-3 and > 10000 µM (inactive) in the test with NCI-H522.
As for `CCCCCC(C[N+]1(C)CCOCC1)C(=O)/C=C/c1ccccc1` (stereo not given), the GI50 with HCT-15 is 8.34 µM; with CAKI-1, 16.9 µM (inactive); in the test with NCI-H23, 14.7 µM (inactive); in the test with KM-20L2 it was 15.9 µM (inactive); with 786-0, 2 µM (inactive); in the test with K562, 3.34 µM (inactive). For the same compound, the GI50 with OVCAR-5 is 17.4 µM (inactive); with SN12C, 13.5 µM (inactive); in the test on SR, 2.91 µM (inactive); with M14 it was 11.1 µM (inactive); with ACHN, 23.6 µM (inactive); in the test on LOX IMVI, 1.76 µM (inactive). Moreover, the GI50 was 7.67 µM (inactive) with U-251; 14.4 µM (inactive) with OVCAR-3; 2.71 µM (inactive) in the test on CCRF-CEM; 46.5 µM (inactive) in the test with SK-OV-3; 3.03 µM (inactive) in the test with NCI-H522.
In the case of `O=C1Sc2sc(=S)sc2SC1c1ccccc1` (stereo not given), the GI50 is 19.4 µM with HCT-15; 1 µM (active) in the test with CAKI-1; 82.6 µM (inactive) with NCI-H23; > 63.5 µM (inactive) in the test with KM-20L2; 40.5 µM (inactive) in the test on NCI/ADR-RES; 32.7 µM (inactive) with K562. For the same compound, the GI50 was > 100 µM (inactive) in the test on OVCAR-5; > 89.7 µM (inactive) in the test with SN12C; 30.8 µM (inactive) in the test on LOX IMVI; 52.5 µM (inactive) in the test on U-251; 29.8 µM (inactive) in the test on OVCAR-3; 33 µM (inactive) in the test on CCRF-CEM. In addition, the GI50 in the test on SK-OV-3 is > 100 µM (inactive); with NCI-H522, 14.2 µM (inactive).
On to `O=C1C=CC(=C(c2ccc(O)cc2)c2ccc(O)cc2)C=C1` [AURIN], for which the GI50 in the test with HCT-15 is 14.4 µM; in the test on CAKI-1, 15.2 µM (inactive); with NCI-H23, 8.57 µM (inactive); in the test on KM-20L2, 16.5 µM (inactive); in the test on 786-0, 13.6 µM (inactive); in the test with K562, 2.94 µM (inactive). Also, the GI50 was 18.2 µM (inactive) with OVCAR-5; 8.47 µM (inactive) in the test on SN12C; 2.36 µM (inactive) with SR; 13.3 µM (inactive) in the test with M14; 15.2 µM (inactive) with ACHN; 10 µM (inactive) with LOX IMVI. The GI50 in the test with U-251 is 5.82 µM (inactive); in the test on OVCAR-3, 7 µM (inactive); in the test on CCRF-CEM, 2.39 µM (inactive); in the test with SK-OV-3, 17.9 µM (inactive); in the test on NCI-H522 it was 10.1 µM (inactive).
On to `C=C(CN(C)C)C(=O)c1ccc(OC)cc1`, for which the GI50 in the test with HCT-15 is 1.76 µM; in the test with CAKI-1, 1.5 µM (inactive); in the test with MDA-N, 7.46 µM (inactive); in the test with NCI-H23, 7.4 µM (inactive); in the test with KM-20L2, 5.13 µM (inactive); in the test with NCI/ADR-RES it was 8.32 µM (inactive). Also, the GI50 in the test with 786-0 was 1.72 µM (inactive); in the test on K562 it was 0.622 µM (active); in the test on OVCAR-5, 13.6 µM (inactive); with SN12C, 2.48 µM (inactive); in the test on SR, 1.05 µM (active); in the test with M14, 2.5 µM (inactive). Besides, the GI50 in the test on ACHN was 1.12 µM (active); in the test with T47D, 0.881 µM (active); with LOX IMVI, 4.49 µM (inactive); in the test on U-251 it was 10.3 µM (inactive); with OVCAR-3, 2.77 µM (inactive); in the test on CCRF-CEM, 0.186 µM (active). For the same compound, the figures for the GI50 in the test with SK-OV-3 and in the test on NCI-H522 were 24.7 µM (inactive) and 0.267 µM (active), respectively.
Regarding `CC(=O)OC1CCC2(C)C(CCC3C2CCC2(C)C(c4ccc(=O)oc4)C(OC(C)=O)CC32O)C1` (stereo not given), the GI50 was 0.0136 µM in the test on HCT-15; 0.0151 µM (active) in the test with CAKI-1; 0.0154 µM (active) with NCI-H23; 0.0188 µM (active) in the test with KM-20L2; 0.0191 µM (active) with NCI/ADR-RES; 0.0161 µM (active) in the test with K562. Also, the GI50 with OVCAR-5 is 0.0397 µM (active); in the test with SN12C it was 0.0162 µM (active); in the test on LOX IMVI it was 0.0176 µM (active); with U-251, 0.0184 µM (active); in the test with OVCAR-3, 0.0161 µM (active); with CCRF-CEM it was 0.0151 µM (active). The GI50 in the test on SK-OV-3 is 0.0292 µM (active); with NCI-H522, 0.016 µM (active).
On to `C=C(C)c1nc(Oc2ccccc2)nc(Oc2ccccc2)n1`, for which the GI50 in the test with HCT-15 is 2.81 µM; in the test with CAKI-1, 2.06 µM (inactive); in the test on MDA-N, 3.5 µM (inactive); with NCI-H23, 6.64 µM (inactive); with KM-20L2, 9.98 µM (inactive); in the test on NCI/ADR-RES it was 10.9 µM (inactive). In addition, the GI50 was 4.58 µM (inactive) in the test on 786-0; 2.23 µM (inactive) with K562; 16.6 µM (inactive) with OVCAR-5; 5.6 µM (inactive) in the test with SN12C; 2.86 µM (inactive) with SR; 5.42 µM (inactive) in the test on M14. In addition, the GI50 in the test with ACHN is 8.63 µM (inactive); in the test on T47D it was 5.36 µM (inactive); with LOX IMVI, 2.08 µM (inactive); in the test on U-251, 10.6 µM (inactive); with OVCAR-3 it was 6.04 µM (inactive); in the test with CCRF-CEM, 2.54 µM (inactive). Besides, the GI50 in the test on SK-OV-3 is 17.6 µM (inactive); in the test with NCI-H522 it was 1.16 µM (inactive).
